Experimental data from patent US10471050B2, “2-OXO-1,2-dihydropyridine-3,5-dicarboxamide compounds as bromodomain inhibitors” (GlaxoSmithKline Intellectual Property (No. 2) Limited, priority 2015, dated 2019).

Tests used:
BRD4 BD2 = target: T1, BRD4 BD2 (Homo sapiens, UniProt O60885, Y97A); assay: BRD4 BD2 TR-FRET competition assay; assay type: binding; conditions: single mutant tandem BRD4, read-out: pIC50 in the BRD4 BD2 assay (converted)
T1 construct: BRD4 (1-477) (Y97A) and (Y390A); made in house; host or cells: E. coli (pET15b vector)
Protocol: Bromodomain binding was assessed utilising a time resolved fluorescent resonance energy transfer (TR-FRET) competition assay. To enable this approach a known, high affinity, pan-BET interacting small molecule was labelled with Alexa Fluor® 647, which is a far-red-fluorescent dye (Reference Compound X). Reference Compound X acts as a reporter of bromodomain binding and is the acceptor fluorophore component of the TR-FRET pair. Europium chelate, conjugated to an anti-6*His antibody, was utilised as the donor fluorophore in the TR-FRET pair. […] A TR-FRET signal is generated when the donor and acceptor fluorophores are in close proximity, between 20-80 Å, which is enabled in this assay by binding of Reference Compound X to the bromodomain protein.
In order to generate a TR-FRET signal, donor fluorophore is excited by a laser at λ337 nm, which subsequently leads to emission at λ618 nm. If the acceptor fluorophore is in close proximity then energy transfer can occur, which leads to emission of Alexa Fluor® 647 at λ665 nm. In the presence of competitor compound, Reference Compound X can be displaced from binding to the bromodomain. If displacement occurs, the acceptor fluorophore is no longer in proximity to the donor fluorophore, which prevents fluorescent energy transfer and, subsequently, a loss of Alexa Fluor® 647 emission at λ665 nm.
The competition of the compounds of formula (I) with Reference Compound X for binding to the BET family (BRD2, BRD3, BRD4 and BRDT) was assessed using protein truncates spanning both bromodomain 1 (BD1) and bromodomain 2 (BD2). In order to monitor differential binding to either BD1 or BD2, single residue mutations of key tyrosines to alanine were made in the acetyl lysine binding pockets. To validate this approach, a double residue mutant tandem domain protein was produced for each of the BET family members. Utilising a Fluorescence Polarisation approach, binding affinities for each of the single and double mutants for Reference Compound X were determined.
Final purification was completed by Superdex 200 prep grade size exclusion column. Purified protein was stored at −80° C. in 20 mM HEPES pH 7.5 and 100 mM NaCl.
All assay components were dissolved in an assay buffer composing of 50 mM HEPES pH7.4, 50 mM NaCl, 5% Glycerol, 1 mM DTT and 1 mM CHAPS. Reference Compound X was diluted, in assay buffer containing 20 nM single mutant, tandem bromodomain protein, to a concentration equivalent to 2*Kd for this bromodomain. The solution containing bromodomain and Reference Compound X was added to dose response dilutions of test compound or DMSO vehicle (a maximum of 0.5% DMSO is used in this assay) in Greiner 384 well black low volume microtitre plates and subsequently incubated for 30 minutes at room temperature. An equal volume of 3 nM of anti-6*His Europium chelate was added to all wells, followed by a further 30 minute incubation at room temperature. TR-FRET was detected using a Perkin Elmer Multimode plate reader, by exciting the donor fluorophore at λ337 nm and subsequently, after a delay of 50 μsecs, measuring emission of the donor and acceptor fluorophores at λ615 nm and λ665 nm, respectively. In order to control these assays, 16 replicates each of uninhibited (DMSO vehicle) and inhibited (10*IC50 concentrations of Example 11 of WO 2011/054846A1) TR-FRET assays were included on every microtitre plate.
cA four parameter curve fit of the following form was then applied: y=a+((b−a)/(1+(10^x/10^c)^d)
Where ‘a’ is the minimum, ‘b’ is the Hill slope, ‘c’ is the pIC50 and ‘d’ is the maximum.

BRD4 BD2 over BRD4 BD1 = assay: Calculation of selectivity for BRD4 BD2 over BRD4 BD1 from the TR-FRET assays; assay type: binding, Human; conditions: 1 log unit = 10 fold, 2 log unit = 100 fold
Protocol: Bromodomain binding was assessed utilising a time resolved fluorescent resonance energy transfer (TR-FRET) competition assay. To enable this approach a known, high affinity, pan-BET interacting small molecule was labelled with Alexa Fluor® 647, which is a far-red-fluorescent dye (Reference Compound X). Reference Compound X acts as a reporter of bromodomain binding and is the acceptor fluorophore component of the TR-FRET pair. Europium chelate, conjugated to an anti-6*His antibody, was utilised as the donor fluorophore in the TR-FRET pair. The anti-6*His antibody binds selectively to a six Histidine purification epitope added to the amino-terminus of each of the BET tandem bromodomain protein constructs used in this study. […]
The competition of the compounds of formula (I) with Reference Compound X for binding to the BET family (BRD2, BRD3, BRD4 and BRDT) was assessed using protein truncates spanning both bromodomain 1 (BD1) and bromodomain 2 (BD2). […] Utilising a Fluorescence Polarisation approach, binding affinities for each of the single and double mutants for Reference Compound X were determined. […] In the TR-FRET competition assay, Reference Compound X is used at a concentration that is equivalent to the Kd for the non-mutated bromodomain, which ensures that no binding at the mutated bromodomain is detected. […]

## CNC(=O)c1cc(C(=O)NCCCC(=O)O)cn(Cc2ccccc2)c1=O [Example 44, 4-(1-Benzyl-5-(methylcarbamoyl)-6-oxo-1,6-dihydropyridine-3-carboxamido)butanoic acid]
BRD4 BD2
  IC50: 100 to 1000 nM
BRD4 BD2 over BRD4 BD1
  selectivity for BRD4 BD2 over BRD4 BD1 (BRD4 BD2 pIC50 - BRD4 BD1 pIC50): < 1 log unit
